What was measured:
[1] = in vivo; cited from earlier work
[2] = tested on: MIA-PaCa-2 xenograft tumor; assay: Apoptosis in xenograft tumors (cleaved caspase 3, TUNEL, Bax/Bcl-2); format: in vivo, athymic (nude) mice
Description: FIG. 6C illustrates apoptosis. Top, tumor tissues were processed for Cleaved Caspase 3 immunohistochemistry. […] Caspase 3, Bax and Bcl-2 (middle) expressions of pancreatic tumors from same crocetinic acid-treated and control animals using Western Blot were carried out and Bax/Bcl-2 ratio was also determined (bottom). Columns, mean from six different animals; bars, SD (B and C). *, P<0.05; **, P<0.001 versus untreated control (Student's t test);
To explore whether the regression of tumor growth by crocetin is due to inhibition of proliferation, apoptotic cell death or both, we first evaluated PCNA (proliferating cell nuclear antigen) expression and then EGFR expression in tumors using histochemical analysis. […] Next, apoptosis by TUNEL assay was investigated in the tumors of mice treated with or without crocetin.

[3] = tested on: EGFR; assay: EGFR expression and phosphorylation in xenograft tumors (immunohistochemistry, Western blot); format: in vivo, athymic (nude) mice
Description: FIG. 6B illustrates expression of EGFR and Akt. Tissue sections were obtained from human pancreatic cancer tumors growing in nude mice as described in FIG. 5, and stained for pEGFR and pAkt as described in Materials and Methods section (below). Middle, EGFR and Akt expression of pancreatic tumors from same crocetinic acid-treated and untreated control animals using Western Blot as described in FIG. 4B, was determined. Phophorylated (p-EGFR) and total protein of EGFR and phophorylated Akt and total Akt expressed as ratio between them normalized with b-actin was shown (bottom);
The immuno-Western blot analyses were the same as described earlier by Banerjee et al. (Reference 26). Briefly, MIA-PaCa-2 and BxPC-3 cells following treatment with or without crocetin and tumor samples were homogenized. […] Protein concentration was measured by using the Comassie blue reagent assay (Pierce, Rockford, Ill.). […] The antigen-antibody reactions were detected with HRP-conjugated anti-rabbit or anti-mouse IgG for one hour in room temperature. Immunoreactions were visualized by the ECL ([…]) chemiluminescence reagent kit (Pierce, Rockford, Ill.) and relative expression of proteins were calculated by densitometric analyses using ID image Analysis Software version 3.6 (Eastman Kodak Company, Rochester, N.Y.). […]

[4] = tested on: BxPc3 cells; assay: Apoptosis assay in BxPC3 cells; format: cell-based, human; conditions: comparison to commercial crocetin
Description: (§1) FITC Annexin V and PI for flow cytometry provide a rapid and convenient assay for apoptosis. Treated and control cells were incubated with annexin V conjugate and propidium iodide (PI). Then cells were deposited onto slides for fluorescence microscopy. Cells were also used for flow cytometry analysis for live, apoptotic and dead cells using annexin V conjugated to green-fluorescent FITC dye and propidium iodide (PI). Propidium iodide stains necrotic cells with red fluorescence whereas green FITC dye stains apoptotic cells.

[5] = tested on: human cells; conditions: cited from earlier work
[6] = tested on: Panc-1 cells; assay: Click-it EdU microplate proliferation assay; format: cell-based, human; conditions: for potency in proliferation assay relative to crude crocetin: Panc-1, 48-72 hours, versus CC; for inhibiting proliferation: Panc-1 cells
Description: (§2) Pancreatic cancer cells were plated at desired density onto 96-well corning tissue culture plates. After 24 hours, cells were treated for 72 hours with different concentrations (1-50 μM) of purified crocetin and crude/commercial crocetin. Cells were labelled with Click-it EdU and were fixed. Then fixed cells were incubated with anti-Oregon Green antibody conjugated to horseradish peroxidase and measured flurescent product (excitation/emission˜568/585).
[…] We have also used higher doses (25, 50 and 100 μM) in this experiment and it needs about 50-100 concentration of CC for inhibition of proliferation and increase of apoptosis at the level of 1 and 10 μm of PC. Treated cells were then labeled with Brdu and cells were assayed by Invitrogen Click-it Edu fluorimetric microplate proliferation kit and apoptosis assay kit.

[7] = tested on: Panc-1 cells; assay: Migration of Panc-1 cells in Bowden chamber; format: cell-based, human; conditions: 1 and 10 μM, 24 hours, compared with CC
Description: FIG. 4A illustrates effect of purified crocetin (PC) and crude crocetin (CC) on migration of Panc-1 cells. Panc-1 cells were incubated with PC and CC at concentrations of 1 and 10 μM in Bowden chamber for 24 hours and migration was studied.

[8] = tested on: Akt; assay: Western blot of Akt signaling in Panc-1 cells; format: cell-based, human; conditions: 10 mM, listed as PC
Description: (§3) FIG. 4B illustrates effect of purified crocetin (PC) and crude crocetin (CC) on EGFR (epidermal growth factor receptor), Akt signaling and Bax/Bcl-2 on Panc-1 cells.
(§4) The immuno-Western blot analyses were the same as described earlier by Banerjee et al. (Reference 26). Briefly, MIA-PaCa-2 and BxPC-3 cells following treatment with or without crocetin and tumor samples were homogenized. Then, both cell and tumor lysates were spun at 18000 g for 1 hr at 4° C., and the supernatants were collected for immunodetection. Protein concentration was measured by using the Comassie blue reagent assay (Pierce, Rockford, Ill.). Equal amount of protein were resolved in 10% SDS-PAGE, transferred onto nitrocellulose membranes. Membranes were blocked with super block (Pierce, Rockford, Ill.) followed by incubation with appropriate primary antibodies at 4° C., overnight. The antigen-antibody reactions were detected with HRP-conjugated anti-rabbit or anti-mouse IgG for one hour in room temperature. Immunoreactions were visualized by the ECL ([…]) chemiluminescence reagent kit (Pierce, Rockford, Ill.) and relative expression of proteins were calculated by densitometric analyses using ID image Analysis Software version 3.6 (Eastman Kodak Company, Rochester, N.Y.).

[9] = tested on: BxPc3 cells; assay: Proliferation assay in BxPC3 cells; format: cell-based, human; conditions: comparison to commercial crocetin
Description: as §2

[10] = tested on: Sonic Hedgehog signaling pathway; assay: Western blot of Sonic Hedgehog signaling pathway proteins and target genes; format: cell-based
Source text: FIG. 7A illustrates western blots of onic Hedgehog signaling pathways proteins (sonic hedgehog, Gli-1, SUFU, Smoothened with beta-actin) expressions in treated lanes of I (CC), 2 (PC #5), 3 (PC #3) and 4 (PC #1).
FIG. 7B illustrates sonic hedgehog target genes: Patched, p21, cyclin D1 with actin treated by CC (Lane 1) and PC #5 (Lane 2), PC #3 (Lane 3) and PC #1 (Lane 4).
as §4

[11] = tested on: pancreatic CSCs (pancospheres); assay: Pancospheroid formation assay; format: cell-based; conditions: dose dependent, 0, 1, 5, 10, 20 μM
Description: FIG. 7C illustrates spheroid formation assay. Stemness pancreatic cancer cells ware determined using spheroid assay in PC versus CC in different concentrations (0, 1, 5, 10, 20 μM); and
Spheroids were prepared as previously described (Reference 17). Briefly, 1000 cells/well in DMEM/F12 (Invitrogen, France) supplemented with EGF (20 ng/ml, Invitrogen) and B27 (1×, Invitrogen) were distributed in ultra-low attachment plates 6 well plates. Plates were placed in a humidified atmosphere of 5% CO2 at 37° C. Numbers of pancosphers formation, after 6-8 days culture, were counted under a light microscopy and quantified by Celigo software.

[12] = tested on: Bax/Bcl-2; assay: Western blot of Bax/Bcl-2 in Panc-1 cells; format: cell-based, human; conditions: Panc-1, Western blot
Description: as §3, §4

[13] = tested on: MIA-PaCa-2 xenograft tumor; assay: Pancreatic cancer xenograft tumor growth in athymic nude mice; format: in vivo; conditions: 0.5 mg/kg, oral, 0 to 21 days, in comparison to control
Description: FIG. 5 illustrates pancreatic cancer xenograft tumor growth in athymic (nude) mice. […] The tumor size was measured (right) from the start date of crocetin treatment (0 day) to end date of crocetin treatment (21 days) in comparison to control (no treatment). Number of animals is 5 in the control and treated group;
MIA-PaCa-2 cells (2.5×10^6) were injected into the right hind leg of each mouse for the development of tumor. The mice were divided into two groups (6 mice per group) with a control group and crocetin treatment group. After development of palpable tumor, the tumor size was measured twice in a week. When tumors are well established (approximately 0.34 cm^3); treatment was started. The treatment group received crocetin at 0.5 mg/kg/day orally dissolved in 15 ml of peptamen for 12 hours during dark for 30 days and the dose is in agreement with other investigators (References 14, 17, 20 and 27). Tumor size was monitored twice weekly, and its volume calculated as […], where a=length and b=width. Control group received only peptamen. The mice were given solid food during light time following liquid peptamen diet at dark. All mice were sacrificed after 30 days following treatment and tumors were taken out and stored at −80° C. […]

[14] = tested on: pancreatic cancer cells; assay: Cytotoxicity against pancreatic cancer cells; format: cell-based; conditions: dose- and time-dependent
Description: The human pancreatic adenocarcinoma cell lines MIA-PaCa-2, BxPC3, Capan-1 and ASPC-1 were obtained from the American Type Culture Collection (ATCC, Manassas, Va., USA) and grown in Dulbecco's modified Eagles medium (DMEM, Sigma Chemical Co, St Louis, Mo.) supplemented with 1 mM sodium pyruvate (Fisher Chemical Company), 100 U/ml of penicillin and 100 U/ml of streptomycin (Sigma Chemical Co, St Louis, Mo.) and 10% FBS (Hyclone, Road Logan, Utah) at 37° C. in a humidified tissue culture incubator containing 5% CO2 and 95% air. ˜70% confluent cells were treated with different concentrations (1-50 μM) of purified crocetinic acid and commercial crocetin for 72 h.

[15] = tested on: PCNA; assay: PCNA histochemical analysis of xenograft tumor tissue; format: in vivo, athymic (nude) mice; conditions: versus untreated
Description: FIG. 6A illustrates expression of PCNA (proliferating cell nuclear antigen). Cell proliferation in tumor tissues, obtained from athymic mice as depicted in FIG. 5, was evaluated by staining for PCNA using histochemical analysis.
Immunohistochemical analysis was performed according to our previous described method (27) using Zymed broad range immunohistochemical kits (Zymed Laboratories, CA). Tumor tissue samples were fixed in 4% buffered formalin and embedded in paraffin. The serial sections of 5 μm were cut. The tissue sections were deparaffinized and were hydrated in different concentrations of ethanol (i.e. 100%, 90%, 70%, and 50%). Endogenous peroxidase activity was blocked at room temperature by incubating in hydrogen peroxide in methanol (1:9). Slides were washed with PBS (phosphate buffered saline) and nonspecific binding was blocked by blocking solution for 10 min. The sections were incubated with respective primary antibody in a humidified chamber at 4° C. overnight. The tissues were incubated with biotynylated secondary antibody (Zymed kit). The slides were then incubated with HRP (horseradish peroxidase) linked enzyme conjugate for 10 min. Positive reactions were visualized by incubating slides with stable 3,3′-diaminobenzidine (DAB) solution (Zymed kit) and counterstained with haematoxylin. The slides were dehydrated and mounted in permount for microscopic examination.

[16] = tested on: Panc-1 cells; assay: Apoptosis assay (apoptosis kit, Annexin V-FITC flow cytometry and fluorescence microscopy); format: cell-based, human; conditions: for potency in apoptosis assay relative to crude crocetin: Panc-1, 48-72 hours, versus CC; for stimulating apoptosis: Panc-1 cells
Description: as §1
We treated Panc-1 pancreatic cancer cells with either purified crocetin or PC (fraction 5 of FIG. 2A) derived from alkaline treatment or crude commercial crocetin or CC (1 and 10 μM concentrations) for 48-72 hours. We have also used higher doses (25, 50 and 100 μM) in this experiment and it needs about 50-100 concentration of CC for inhibition of proliferation and increase of apoptosis at the level of 1 and 10 μm of PC. Treated cells were then labeled with Brdu and cells were assayed by Invitrogen Click-it Edu fluorimetric microplate proliferation kit and apoptosis assay kit.

[17] = tested on: DCLK-1; assay: Western blot of DCLK1 expression; format: cell-based, human; set-up: dose or concentration left out as unconfirmed; conditions: Mia-PaCa2 cells
Description: FIG. 7D illustrates DCLK1 expression. Western blot analysis of DCLK1 after treatment of Mia-PaCa2 cells treated with 10 mM of CC and PC of #5, #3 and #1 HPLC fractions.
as §4

[18] = tested on: EGFR; assay: Western blot of EGFR (phosphorylated and total) in Panc-1 cells; format: cell-based, human; set-up: dose or concentration left out as unconfirmed; conditions: Panc-1, compared with CC
Description: as §3, §4

[19] = in comparison to commercial crocetin

Structure (SMILES): CC(/C=C/C=C(\C)C(=O)O)=C\C=C\C=C(C)\C=C\C=C(/C)C(=O)O [crocetin]
- LD50 [1]: 2000 mg/kg
- ratio of Bax/Bcl-2 in pancreatic tumors ([2]; xenograft tumors, Western blot): significantly increased
- TUNEL assay positive cells in tumors ([2]; xenograft tumors, versus untreated): elevated markedly
- EGFR activity (ratio of phosphorylated and unphosphorylated form) in tumors [3]: significantly impaired
- EGFR expression and phosphorylation in tumors ([3]; versus untreated): significantly reduced

Structure (SMILES): CC(C=CC=C(C)C(=O)O)=CC=CC=C(C)C=CC=C(C)C(=O)O [crocetinic acid]
- stimulation of apoptosis [4]: stimulated apoptosis
- toxicity to human cells [5]: relatively nontoxic
- inhibition in proliferation ([6]; 1 µM, compared with CC): highly potent inhibition
- potency in proliferation assay relative to crude crocetin ([6]; listed as #5): 50 times
- potency in proliferation assay relative to crude crocetin ([6]; listed as PC): 50 times
- potency in proliferation assay relative to crude crocetin ([6]; listed as purified crocetin): about 50 times
- inhibiting proliferation [6]: significantly inhibited
- inhibiting proliferation ([6]; listed as #5): promising effect
- migration [7]: significantly inhibited
- Akt expression and phosphorylation [8]: significantly inhibited
- inhibition of proliferation [9]: significantly inhibited
- Gli1 expression ([10]; Western blot): inhibited
- SUFU expression ([10]; Western blot): inhibited
- smoothened expression ([10]; Western blot): inhibited
- cyclin D1 expression ([10]; Western blot, target protein): inhibited
- patched expression [10, 19]: increased expression
- sonic hedgehog (Shh) expression [10, 19]: significantly inhibited
- patched expression ([10]; in comparison to commercial crocetin, listed as 5): increased
- number and size of primary and secondary pancospheres (spheroid formation) [11]: decreased
- number and size of primary and secondary pancospheres (spheroid formation) ([11]; listed as #5): significant inhibition
- Bax/Bcl-2 ratio [12]: increase
- Bcl-2 [12]: decrease
- tumor growth [13]: significantly inhibited
- cytotoxicity [14]: significant cytotoxicity
- PCNA expression in tumors [15]: significantly decreased
- apoptosis ([16]; 1 µM, compared with CC): increase
- potency in apoptosis assay relative to crude crocetin ([16]; listed as #5): 50 times
- potency in apoptosis assay relative to crude crocetin ([16]; listed as PC): 50 times
- potency in apoptosis assay relative to crude crocetin ([16]; listed as purified crocetin): about 50 times
- stimulating apoptosis [16]: stimulated apoptosis
- stimulating apoptosis ([16]; listed as #5): promising effect
- apoptosis by flow cytometry and fluorescence microscopy ([16]; lower doses): significant increase
- DCLK-1 expression [17]: significantly inhibited
- DCLK-1 expression ([17]; listed as 5): reduction
- apoptosis by cleaved caspase 3 immunohistochemistry in tumors ([2]; daily treatment, versus vehicle): Increased apoptosis
- EGFR phosphorylation [18]: significantly inhibited
